Laboratory results reported in patent publication US9686985B2, “Fungicide N-cycloalkyl-N-bicyclicmethylene-carboxamide derivatives” (BAYER INTELLECTUAL PROPERTY GMBH, priority 2012, dated 2017).
Read-outs that look alike come from different tables or passages of the source. Each block holds one molecule with its values, some of them ahead of it.

How the values were obtained:
[1] = log P by HPLC on reversed-phase column (EEC Directive 79/831 Annex V.A8); type: physicochemical; conditions: for logP: Table 1
Experimental: In table 1, the log P values were determined in accordance with EEC Directive 79/831 Annex V.A8 by HPLC (High Performance Liquid Chromatography) on a reversed-phase column (C 18), using the method described below: Temperature: 40° C.; Mobile phases: 0.1% aqueous formic acid and acetonitrile; linear gradient from 10% acetonitrile to 90% acetonitrile. Calibration was carried out using unbranched alkan-2-ones (comprising 3 to 16 carbon atoms) with known log P values (determination of the log P values by the retention times using linear interpolation between two successive alkanones). lambda-max-values were determined using UV-spectra from 200 nm to 400 nm and the peak values of the chromatographic signals.

[2] = system: Uromyces appendiculatus; experiment: Example G: in vivo preventive test on Uromyces appendiculatus (bean rust); conditions: bean plants; for protection: summary over doses of 500 ppm and 100 ppm; for Efficacy: table G2
Experimental: Example G: In Vivo Preventive Test on Uromyces appendiculatus (Bean Rust) […] Bean plants (“Saxa” variety), sown in starter cups on a 50/50 peat soil pozzolana substrate and grown at 24° C., are treated at the 2 leaf stage (9 cm height) by spraying with the active ingredient prepared as described above. Plants, used as controls, are treated with the mixture of acetone/tween/DMSO/water not containing the active material. After 24 hours, the plants are contaminated by spraying the leaves with an aqueous suspension of Uromyces appendiculatus spores (150 000 spores per mL). The spores are collected from infected plants and are suspended in water containing 2.5 mL/L of Tween 80 at 10%. The contaminated bean plants are incubated for 24 hours at 20° C. and at 100% relative humidity, and then for 10 days at 20° C. and at 70-80% relative humidity. Grading (% of efficacy) is carried out 11 days after the contamination, in comparison with the control plants.

[3] = system: Pyrenophora teres; experiment: Example N: in vivo preventive test on Pyrenophora teres (barley); conditions: table N; 500 ppm; barley plants; grading 14 days after contamination
Experimental: Example N: In Vivo Preventive Test on Pyrenophora teres (Barley) […] Barley plants (“Plaisant” variety), sown in starter cups on a 50/50 peat soil pozzolana substrate and grown at 22° C., are treated at the 1 leaf stage (10 cm height) by spraying with the active ingredient prepared as described above. Plants, used as controls, are treated with the mixture of acetone/tween/DMSO/water not containing the active material. After 24 hours, the plants are contaminated by spraying the leaves with an aqueous suspension of Pyrenophora teres spores (12 000 spores per mL). The spores are collected from a 12-day-old culture. The contaminated barley plants are incubated for 48 hours at 20° C. and at 100% relative humidity, and then for 12 days at 20° C. at 70-80% relative humidity. Grading (% of efficacy) is carried out 14 days after the contamination, in comparison with the control plants.

[4] = system: Alternaria brassicae; experiment: Example D: in vivo preventive test on Alternaria brassicae (leaf spot on radish); conditions: table D; 500 ppm; radish plants; grading 6 days after contamination
Experimental: Example D: In Vivo Preventive Test on Alternaria brassicae (Leaf Spot on Radish) […] Radish plants (“Pernod Clair” variety), sown in starter cups on a 50/50 peat soil pozzolana substrate and grown at 17° C., are treated at the cotyledon stage by spraying with the active ingredient prepared as described above. Plants, used as controls, are treated with the mixture of acetone/tween/DMSO/water not containing the active material. After 24 hours, the plants are contaminated by spraying the cotyledons with an aqueous suspension of Alternaria brassicae spores (50 000 spores per mL). The spores are collected from a 15-day-old culture. The contaminated radish plants are incubated at 20° C. and at 100% relative humidity. Grading (% of efficacy) is carried out 6 days after the contamination, in comparison with the control plants.

[5] = HPLC C18, 40° C., 0.1% aqueous formic acid and acetonitrile gradient
[6] = reversed-phase C18 HPLC column, Table 2 (amines IIf), HPLC C18, 40° C., 0.1% aqueous formic acid and acetonitrile gradient, read-out: logP

Compound: CC1(C)CC(CNC2CC2)c2ccccc21 (stereo not shown) [IIf.5, N-[(3,3-dimethyl-2,3-dihydro-1H-inden-1-yl)methyl]cyclopropanamine]
chromatographic logP [1]: 1.12

Compound: Cc1ccc2c(c1)CCC2CN(C(=O)c1cn(C)nc1C(F)F)C1CC1 (stereo not shown) [CMP3, N-cyclopropyl-3-(difluoromethyl)-1-methyl-N-[(5-methyl-2,3-dihydro-1H-inden-1-yl)methyl]-1H-pyrazole-4-carboxamide, reference compound]
protection [2]: high (at least 80%) to no protection | Efficacy ([2]; dose 100 ppm): 0% | Efficacy ([2]; dose 500 ppm): 34%

chromatographic logP [1]: 4.44
Compound: Cc1cc(C)c2c(c1)C(CN(C(=O)c1c(C(F)F)nn(C)c1F)C1CC1)CCC2 (stereo not shown) [I.37, N-cyclopropyl-3-(difluoromethyl)-N-[(5,7-dimethyl-1,2,3,4-tetrahydronaphthalen-1-yl)methyl]-5-fluoro-1-methyl-1H-pyrazole-4-carboxamide]

Compound: Brc1cccc2c1C(CNC1CC1)CC2 (stereo not shown) [IIf.10, N-[(7-bromo-2,3-dihydro-1H-inden-1-yl)methyl]cyclopropanamine]
chromatographic logP [1]: 1.08

Compound: Fc1cccc2c1CCC2CNC1CC1 (stereo not shown) [IIf.4, N-[(4-fluoro-2,3-dihydro-1H-inden-1-yl)methyl]cyclopropanamine]
chromatographic logP [1]: 0.82

logP [1, 5]: 3.96
Compound: Cn1nc(C(F)F)c(C(=O)N(CC2CCc3cccc(Cl)c32)C2CC2)c1Cl (stereo not shown) [I.15]
Efficacy [3]: 71%

chromatographic logP [1, 6]: 1.05
Compound: Fc1ccc2c(c1)C(CNC1CC1)CCS2 (stereo not shown) [IIf.18, N-[(6-fluoro-3,4-dihydro-2H-thiochromen-4-yl)methyl]cyclopropanamine]

logP [1, 5]: 3.17
Compound: Cn1nc(C(F)F)c(C(=O)N(CC2CCOc3ccccc32)C2CC2)c1Cl (stereo not shown) [I.32]
Efficacy [3]: 88%

chromatographic logP [1, 6]: 0.86
Compound: c1ccc2c(c1)CSCC2CNC1CC1 (stereo not shown) [IIf.17, N-(3,4-dihydro-1H-isothiochromen-4-ylmethyl)cyclopropanamine]

Compound: Cn1cc(C(=O)N(CC2CCc3c(F)cccc32)C2CC2)c(C(F)F)n1 (stereo not shown) [CMP4, N-cyclopropyl-3-(difluoromethyl)-N-[(4-fluoro-2,3-dihydro-1H-inden-1-yl)methyl]-1-methyl-1H-pyrazole-4-carboxamide, reference compound]
protection [2]: high (at least 80%) to no protection | Efficacy ([2]; dose 100 ppm): 0% | Efficacy ([2]; dose 500 ppm): 6%

logP [1, 5]: 4.06
Compound: COc1cccc2c1CCCC2CN(C(=O)c1c(C(F)F)nn(C)c1F)C1CC1C (stereo not shown) [I.38]

Compound: c1ccc2c(c1)CCCCC2CNC1CC1 (stereo not shown) [IIf.16, N-(6,7,8,9-tetrahydro-5H-benzo[7]annulen-5-ylmethyl)cyclopropanamine]
chromatographic logP [1]: 1.17

Compound: Cc1cc(C)c2c(c1)C(CNC1CC1)CCC2 (stereo not shown) [IIf.13, N-[(5,7-dimethyl-1,2,3,4-tetrahydronaphthalen-1-yl)methyl]cyclopropanamine]
chromatographic logP [1]: 1.75

logP [1, 5]: 4.08
Compound: Cn1nc(C(F)F)c(C(=O)N(CC2CCc3cccc(Br)c32)C2CC2)c1Cl (stereo not shown) [I.22]

Compound: FC(F)(F)c1ccc2c(c1)C(CNC1CC1)CC2 (stereo not shown) [IIf.8, N-{[6-(trifluoromethyl)-2,3-dihydro-1H-inden-1-yl]methyl}cyclopropanamine]
chromatographic logP [1]: 1.25

Compound: Clc1cccc2c1C(CNC1CC1)CCC2 (stereo not shown) [IIf.15, N-[(8-chloro-1,2,3,4-tetrahydronaphthalen-1-yl)methyl]cyclopropanamine]
chromatographic logP [1]: 1.57

Compound: c1ccc2c(c1)CCC2CNC1CC1 (stereo not shown) [IIf.1, N-(2,3-dihydro-1H-inden-1-ylmethyl)cyclopropanamine]
chromatographic logP [1]: 0.75

Compound: Cc1cccc2c1CCC2CN(C(=O)c1cn(C)nc1C(F)F)C1CC1 (stereo not shown) [CMP2, N-cyclopropyl-3-(difluoromethyl)-1-methyl-N-[(4-methyl-2,3-dihydro-1H-inden-1-yl)methyl]-1H-pyrazole-4-carboxamide, reference compound]
protection [2]: high (at least 80%) to no protection | Efficacy ([2]; dose 100 ppm): 0% | Efficacy ([2]; dose 500 ppm): 80%

Compound: Cc1ccc2c(c1)CCC2CNC1CC1 (stereo not shown) [IIf.3, N-[(5-methyl-2,3-dihydro-1H-inden-1-yl)methyl]cyclopropanamine]
chromatographic logP [1]: 0.95

logP [1, 5]: 3.96
Compound: Cn1nc(C(F)F)c(C(=O)N(CC2(C)CCCc3ccccc32)C2CC2)c1F (stereo not shown) [I.39]

Compound: Cc1cccc2c1CCC2CNC1CC1 (stereo not shown) [IIf.2, N-[(4-methyl-2,3-dihydro-1H-inden-1-yl)methyl]cyclopropanamine]
chromatographic logP [1]: 1

logP [1, 5]: 4.26
Compound: Cn1nc(C(F)F)c(C(=O)N(CC2CCCc3cccc(Cl)c32)C2CC2)c1Cl (stereo not shown) [I.29]
Efficacy [3]: 88%

Compound: COc1cccc2c1CCCC2CNC1CC1 (stereo not shown) [IIf.14, N-[(5-methoxy-1,2,3,4-tetrahydronaphthalen-1-yl)methyl]cyclopropanamine]
chromatographic logP [1]: 1.28

Compound: Clc1cc(Cl)c2c(c1)C(CNC1CC1)CC2 (stereo not shown) [IIf.9, N-[(4,6-dichloro-2,3-dihydro-1H-inden-1-yl)methyl]cyclopropanamine]
chromatographic logP [1]: 1.38

Compound: Cn1cc(C(=O)N(CC2CCc3cc(Cl)ccc32)C2CC2)c(C(F)F)n1 (stereo not shown) [CMP6, N-[(5-chloro-2,3-dihydro-1H-inden-1-yl)methyl]-N-cyclopropyl-3-(difluoromethyl)-1-methyl-1H-pyrazole-4-carboxamide, reference compound]
protection [2]: high (at least 80%) to no protection | Efficacy ([2]; dose 100 ppm): 0% | Efficacy ([2]; dose 500 ppm): 19%

chromatographic logP [1, 6]: 1.26
Compound: Clc1ccc2c(c1)C(CNC1CC1)CCS2 (stereo not shown) [IIf.19, N-[(6-chloro-3,4-dihydro-2H-thiochromen-4-yl)methyl]cyclopropanamine]

Compound: Clc1ccc2c(c1)CCC2CNC1CC1 (stereo not shown) [IIf.6, N-[(5-chloro-2,3-dihydro-1H-inden-1-yl)methyl]cyclopropanamine]
chromatographic logP [1]: 1.11

Compound: Cn1cc(C(=O)N(CC2CC(C)(C)c3ccccc32)C2CC2)c(C(F)F)n1 (stereo not shown) [CMP5, N-cyclopropyl-3-(difluoromethyl)-N-[(3,3-dimethyl-2,3-dihydro-1H-inden-1-yl)methyl]-1-methyl-1H-pyrazole-4-carboxamide, reference compound]
protection [2]: high (at least 80%) to no protection | Efficacy ([2]; dose 100 ppm): 31%

Compound: Clc1cccc2c1C(CNC1CC1)CC2 (stereo not shown) [IIf.7, N-[(7-chloro-2,3-dihydro-1H-inden-1-yl)methyl]cyclopropanamine]
chromatographic logP [1]: 0.95

Compound: Cn1cc(C(=O)N(CC2CCc3cccc(Cl)c32)C2CC2)c(C(F)F)n1 (stereo not shown) [CMP7, N-[(7-chloro-2,3-dihydro-1H-inden-1-yl)methyl]-N-cyclopropyl-3-(difluoromethyl)-1-methyl-1H-pyrazole-4-carboxamide, reference compound]
protection [2]: high (at least 80%) to no protection | Efficacy ([2]; dose 100 ppm): 0% | Efficacy ([2]; dose 500 ppm): 0%

Compound: CC1CCC(CNC2CC2)c2ccccc21 (stereo not shown) [IIf.12, N-[(4-methyl-1,2,3,4-tetrahydronaphthalen-1-yl)methyl]cyclopropanamine]
chromatographic logP [1]: 1.22

Compound: CC1(CNC2CC2)CCCc2ccccc21 (stereo not shown) [IIf.11, N-[(1-methyl-1,2,3,4-tetrahydronaphthalen-1-yl)methyl]cyclopropanamine]
chromatographic logP [1]: 1.1

Compound: Cn1cc(C(=O)N(CC2CCc3ccccc32)C2CC2)c(C(F)F)n1 (stereo not shown) [CMP1, N-cyclopropyl-3-(difluoromethyl)-N-(2,3-dihydro-1H-inden-1-ylmethyl)-1-methyl-1H-pyrazole-4-carboxamide, reference compound]
protection [2]: high (at least 80%) to no protection | Efficacy ([2]; dose 100 ppm): 0% | Efficacy ([2]; dose 500 ppm): 13%

logP [1, 5]: 4.11
Compound: CC1CCC(CN(C(=O)c2c(C(F)F)nn(C)c2Cl)C2CC2)c2ccccc21 (stereo not shown) [I.25]
Efficacy [4]: 94% | Efficacy [3]: 94%
